Assay results published in patent US20230000808A1, “COMPOSITIONS AND METHODS EXCLUDING OR WITH REDUCED GLUTAMINE FOR THE TREATMENT OF HEMOGLOBINOPATHIES AND THALASSEMIAS” (AXCELLA HEALTH INC., priority 2019, published 2023).

Key:
[1] = test system: IL-6; assay: Secreted IL-6 in HLMVEC treated with TNF-α (FirePlex); type: cell-based, human; details: HLMVEC + 0.5 ng/mL TNF-α, 24 h; amino acids 20x HMDB, Nac/Cit/Car 5 mM as bracketed
Experimental: (§1) Primary Human Lung Microvascular Endothelial Cells (HLMVEC; Lonza) were seeded at 6,000 cells per well in Endothelial Cell Growth Basal Medium-2 (Lonza) supplemented with Fetal Bovine Serum (FBS; Lonza), human EGF (Lonza), human VEGF (Lonza), R3-Insulin-like Growth Factor-1 (Lonza), ascorbic acid (Lonza), hydrocortisone (Lonza), human FGF-beta (Lonza), and gentamicin/amphotericin-b (Lonza) in a 96-well plate (Thermo Fisher). The cells were incubated for 45 minutes at room temperature, then incubated overnight at 37° C./5% CO2.
(§2) Following overnight incubation, cell were washed once with 150 μL of Dulbecco's phosphate buffered saline (DPBS; Gibco), and then treated with Endothelial Basal Medium MCB-131 (amino acid, glucose, sodium pyruvate, and phenol red free; US Biologicals) containing a defined custom amino acid concentration based on physiological concentrations in blood of patients with SCD (thus recapitulating observed metabolic imbalances such as the depletion of certain essential amino acids including arginine and aspartate and enrichment of certain non-essential amino acids including glutamate and asparagine), dialyzed FBS (Hyclone), human EGF (Lonza), human VEGF (Lonza), R3-Insulin-like Growth Factor-1 (Lonza), ascorbic acid (Lonza), hydrocortisone (Lonza), human FGF-beta (Lonza), and gentamicin/amphotericin-b (Lonza), glucose, 10 mM HEPES, sodium pyruvate, and sodium bicarbonate supplemented with one of the following: • a. PBS (vehicle control), • b. 0.5 ng/mL Tumor Necrosis Factor alpha (TNFα) and PBS, or; • c. 0.5 ng/mL TNF-α and amino acid treatments at 20× mean physiological concentrations in plasma based on values published in the Human Metabolome Database (HMDB) in PBS.
Supernatants were analyzed for IL-6 concentrations using a Human Cytokines FirePlex-HT Panel 1 kit (abcam) according to the manufacturer-supplied instructions. Particles were imaged on a high content imager (Molecular Devices), and results were interpolated from a standard curve with FirePlex Analysis Workbench Software (abcam) according manufacturer's recommendations.

[2] = test system: ICAM-1; assay: ICAM-1 cell integrated intensity in HLMVEC treated with TNF-α (immunofluorescence); type: cell-based, human; details: for ICAM-1 Cell Integrated Intensity Median: HLMVEC + 0.5 ng/mL TNF-α, 24 h, amino acids 20x HMDB, Nac/Cit/Car 5 mM as bracketed
Experimental: as §1, §2
(§3) After 24 hours of treatment, cells were washed once with 150 μL of DPBS (Gibco), then fixed with 4% paraformaldehyde. Following fixation, cells were stained with anti-ICAM-1 [MEM-111] (mouse IgG2a anti-human; abcam) and anti-VCAM1 [1.4C3] (mouse IgG1, K anti-human; abcam) primary antibodies at 1000×, and 100× dilutions respectively. Cells were then stained with Goat anti-Mouse IgG2a Cross-Adsorbed Secondary Antibody, Alexa Fluor 594 (Invitrogen) and Goat anti-Mouse IgG1 Cross-Adsorbed Secondary Antibody, Alexa Fluor 647 (Invitrogen) secondary antibodies. Nuclei were stained with Hoechst 3342 (Life Technologies).
(§4) Antibody binding was detected by fluorescence microscopy using a high content imager (Molecular Devices). Images were analyzed using MetaXpress 6 software to determine the integrated intensity per cell for each wavelength corresponding to ICAM-1 or VCAM-1.

[3] = test system: VCAM-1; assay: VCAM-1 cell integrated intensity in HLMVEC treated with TNF-α (immunofluorescence); type: cell-based, human; details: for VCAM-1 Cell Integrated Intensity Median: HLMVEC + 0.5 ng/mL TNF-α, 24 h, amino acids 20x HMDB, Nac/Cit/Car 5 mM as bracketed
Experimental: as §1, §2, §3, §4

[4] = test system: HLMVEC; assay: META-rank score, composite of VCAM1, ICAM1 and IL6 in the HLMVEC model; type: cell-based, human; details: HLMVEC + TNF-α; lower score = more optimal; 20x HMDB / 5 mM
Experimental: The ability of single amino acids and combinations to simultaneously impact these phenotypes was measured by a META-rank score (Tables 17 and 18). META-rank score is a composite measure that considers the optimal impact on all 3 phenotypes (e.g. decrease VCAM1, ICAM1, and IL6) in the HLMVEC model.

[5] = test system: IL-6; assay: LPS-induced IL-6 secretion in primary human monocyte-derived macrophages (ELISA); type: cell-based; parameters: Donor 1 IL-6 Measurements Mean: unit not given here; details: for Donor 1 IL-6 Measurements Mean / Donor 2 IL-6 Measurements Mean / Donor 3 IL-6 Measurements Mean: LPS, baseline subtracted
Experimental: (§5) Primary human PMBC derived macrophages were seeded on day 0 at 3.0×10^4 cells per well in 96-well microplates (ThermoFisher) in Dulbecco's Modified Eagle Medium (DMEM) (Gibco) supplemented with penicillin-streptomycin (Hyclone) and 10% heat inactivated fetal bovine serum (HI-FBS) (Atlanta Bio) and incubated overnight at 37° C., 5% CO2. On day 1, cells were washed once with 150 μl per well DPBS (Gibco) and treated with 75 μl of: • a. […] The same medium described above with one amino acid at various concentrations including complete dropout. […] On day 3, the supernatant was collected and immediately frozen in −80° C. freezer. Cells were washed once with 150 μl DPBS and viability was assessed using the WST-8 Cell Proliferation Cytotoxicity Assay (Dojindo). […] Protein levels in supernatant samples were analyzed by ELISA for IL-6 and TNFα using commercially available kits (R&D Systems) according to manufacturer-supplied protocols.

[6] = test system: TNFα; assay: LPS-induced TNF-α secretion in primary human monocyte-derived macrophages (ELISA); type: cell-based; details: for TNF-α Measurements Mean: LPS, baseline subtracted; for effect on LPS-induced TNF-α secretion: Two Way ANOVA Dunnett
Experimental: as §5

[7] = 0.5 ng/mL TNF-α, amino acids at 20× HMDB, 24 hours
[8] = Donor 2, Conc. 66 μM (baseline)
[9] = Donor 2, Conc. 153 μM (baseline)
[10] = Donor 2, Conc. 234 μM (baseline)

N=C(N)NCCC[C@H](N)C(=O)O [Arg]
Secreted IL6 Median [1]: −0.224
ICAM-1 Cell Integrated Intensity Median [2]: −0.046
VCAM-1 Cell Integrated Intensity Median [3]: −0.001
Metarank (Table 17) [4]: 19

NC(=O)CC[C@H](N)C(=O)O [Gln]
Secreted IL6 Median [1]: 0.043
ICAM-1 Cell Integrated Intensity Median [2]: 0.237
VCAM-1 Cell Integrated Intensity Median [3]: 0.372
Meta-Rank (Table 18) [4]: 29
Metarank (Table 17) [4]: 28

NCC(=O)O [Gly, glycine]
Secreted IL6 Median [1]: −0.010
TNFα induced ICAM-1 expression levels in HLMVEC [2, 7]: reduced levels of ICAM-1 expression to a lesser extent
ICAM-1 Cell Integrated Intensity Median [2]: −0.261
VCAM-1 expression in HLMVEC [3, 7]: greatly reduced
VCAM-1 Cell Integrated Intensity Median [3]: −0.298
Meta-Rank (Table 18) [4]: 3
Metarank (Table 17) [4]: 26

N[C@@H](Cc1c[nH]cn1)C(=O)O [His]
Secreted IL6 Median [1]: −0.198
ICAM-1 Cell Integrated Intensity Median [2]: 0.084
VCAM-1 Cell Integrated Intensity Median [3]: 0.109
Meta-Rank (Table 18) [4]: 18.5
Metarank (Table 17) [4]: 22

CC[C@H](C)[C@H](N)C(=O)O [Isoleucine]
Donor 1 IL-6 Measurements Mean ([5]; Conc. 66 μM (baseline)): 0
Donor 1 IL-6 Measurements Mean ([5]; Conc. 1328 μM): 25.98
Donor 1 IL-6 Measurements Mean ([5]; Conc. 3320 μM): −15.8843
Donor 1 IL-6 Measurements Mean ([5]; Conc. 6639 μM): −218.332
Donor 2 IL-6 Measurements Mean [5, 8]: 0
Donor 2 IL-6 Measurements Mean ([5]; Donor 2, Conc. 1328 μM): −2.318
Donor 2 IL-6 Measurements Mean ([5]; Donor 2, Conc. 3320 μM): 2.305
Donor 2 IL-6 Measurements Mean ([5]; Donor 2, Conc. 6639 μM): −1.774
Donor 3 IL-6 Measurements Mean ([5]; Conc. 66 μM): −6.69
Donor 3 IL-6 Measurements Mean ([5]; Conc. 1328 μM): −28.9897
Donor 3 IL-6 Measurements Mean ([5]; Conc. 3320 μM): 0
Donor 3 IL-6 Measurements Mean ([5]; Conc. 6639 μM): −16.3663
TNF-α Measurements Mean ([6]; Donor 1, Conc. 66 μM (baseline)): 0
TNF-α Measurements Mean ([6]; Donor 1, Conc. 1328 μM): −42.68
TNF-α Measurements Mean ([6]; Donor 1, Conc. 3320 μM): −96.3
TNF-α Measurements Mean ([6]; Donor 1, Conc. 6639 μM): −40.95
TNF-α Measurements Mean [6, 8]: 4.74E−15
TNF-α Measurements Mean ([6]; Donor 2, Conc. 1328 μM): 2.919
TNF-α Measurements Mean ([6]; Donor 2, Conc. 3320 μM): 10.26
TNF-α Measurements Mean ([6]; Donor 2, Conc. 6639 μM): 19.26
effect on LPS-induced TNF-α secretion ([6]; Donor 2): increased
TNF-α Measurements Mean ([6]; Donor 3, Conc. 66 μM (baseline)): −2.4E−15
TNF-α Measurements Mean ([6]; Donor 3, Conc. 1328 μM): −6.23
TNF-α Measurements Mean ([6]; Donor 3, Conc. 3320 μM): 3.309
TNF-α Measurements Mean ([6]; Donor 3, Conc. 6639 μM): −1.66

CC(C)C[C@H](N)C(=O)O [Leu]
Secreted IL6 Median [1]: −0.491
ICAM-1 Cell Integrated Intensity Median [2]: 0.086
VCAM-1 Cell Integrated Intensity Median [3]: 0.125
Meta-Rank (Table 18) [4]: 20
Metarank (Table 17) [4]: 7

CC(C)C[C@H](N)C(=O)O [Leucine]
Donor 1 IL-6 Measurements Mean ([5]; Conc. 153 μM (baseline)): 0
Donor 1 IL-6 Measurements Mean ([5]; Conc. 3054 μM): 244.9743
Donor 1 IL-6 Measurements Mean ([5]; Conc. 7635 μM): −69.9873
Donor 1 IL-6 Measurements Mean ([5]; Conc. 15270 μM): 84.46
Donor 2 IL-6 Measurements Mean [5, 9]: 7.11E−15
Donor 2 IL-6 Measurements Mean ([5]; Donor 2, Conc. 3054 μM): 29.61
Donor 2 IL-6 Measurements Mean ([5]; Donor 2, Conc. 7635 μM): 30.46
Donor 2 IL-6 Measurements Mean ([5]; Donor 2, Conc. 15270 μM): 47.6
effect on LPS-induced IL-6 secretion ([5]; Donor 2, Two Way ANOVA Dunnett): increased
TNF-α Measurements Mean ([6]; Donor 1, Conc. 153 μM (baseline)): 0
TNF-α Measurements Mean ([6]; Donor 1, Conc. 3054 μM): 42.04
TNF-α Measurements Mean ([6]; Donor 1, Conc. 7635 μM): −23.04
TNF-α Measurements Mean ([6]; Donor 1, Conc. 15270 μM): −46.21
TNF-α Measurements Mean [6, 9]: 0
TNF-α Measurements Mean ([6]; Donor 2, Conc. 3054 μM): 31.74
TNF-α Measurements Mean ([6]; Donor 2, Conc. 7635 μM): 41.98
TNF-α Measurements Mean ([6]; Donor 2, Conc. 15270 μM): 46.69
effect on LPS-induced TNF-α secretion ([6]; Donor 2): increased

NCCCC[C@H](N)C(=O)O [Lys]
Secreted IL6 Median [1]: 0.132
ICAM-1 Cell Integrated Intensity Median [2]: 0.064
VCAM-1 Cell Integrated Intensity Median [3]: 0.025
Meta-Rank (Table 18) [4]: 15.5
Metarank (Table 17) [4]: 29

CC(C)[C@H](N)C(=O)O [Valine]
Donor 1 IL-6 Measurements Mean ([5]; Conc. 234 μM (baseline)): 0
Donor 1 IL-6 Measurements Mean ([5]; Conc. 4684 μM): −85.9843
Donor 1 IL-6 Measurements Mean ([5]; Conc. 11710 μM): −97.25
Donor 1 IL-6 Measurements Mean ([5]; Conc. 23420 μM): −106.268
Donor 2 IL-6 Measurements Mean [5, 10]: −4.7E−15
Donor 2 IL-6 Measurements Mean ([5]; Donor 2, Conc. 4684 μM): −4.528
Donor 2 IL-6 Measurements Mean ([5]; Donor 2, Conc. 11710 μM): −1.196
Donor 2 IL-6 Measurements Mean ([5]; Donor 2, Conc. 23420 μM): 4.396
Donor 3 IL-6 Measurements Mean ([5]; Conc. 234 μM (baseline)): 4.26E−14
Donor 3 IL-6 Measurements Mean ([5]; Conc. 4684 μM): −30.0609
Donor 3 IL-6 Measurements Mean ([5]; Conc. 11710 μM): −43.8022
Donor 3 IL-6 Measurements Mean ([5]; Conc. 23420 μM): −29.2004
TNF-α Measurements Mean ([6]; Donor 1, Conc. 234 μM (baseline)): 0
TNF-α Measurements Mean ([6]; Donor 1, Conc. 4684 μM): −40.37
TNF-α Measurements Mean ([6]; Donor 1, Conc. 11710 μM): −41.77
TNF-α Measurements Mean ([6]; Donor 1, Conc. 23420 μM): −14.98
TNF-α Measurements Mean [6, 10]: −4.7E−15
TNF-α Measurements Mean ([6]; Donor 2, Conc. 4684 μM): −0.00221
TNF-α Measurements Mean ([6]; Donor 2, Conc. 11710 μM): −0.835
TNF-α Measurements Mean ([6]; Donor 2, Conc. 23420 μM): −1.251
TNF-α Measurements Mean ([6]; Donor 3, Conc. 234 μM (baseline)): −2.4E−15
TNF-α Measurements Mean ([6]; Donor 3, Conc. 4684 μM): 0.126
TNF-α Measurements Mean ([6]; Donor 3, Conc. 11710 μM): −2.599
TNF-α Measurements Mean ([6]; Donor 3, Conc. 23420 μM): 3.688
